In ChEMBL document CHEMBL1201862, “PubChem BioAssay data set” (2004):
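Grown in 96-well plates, cells were treated for 48 hours with each compound at five concentrations. Insufficient inhibition: endpoint recorded as highest concentration tested. Here, GI50 denotes the concentration required for 50% inhibition of growth.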 Active and inactive are the calls of the source. Cut-off read from the data, not from the text of the source: active = GI50 up to about 1.1 µM and inactive = higher.

Legend:
Assay in all cases: inhibition of tumour cell growth, NCI panel, 48 h
ACHN = tested on: ACHN
DU-145 = tested on: DU-145
EKVX = tested on: EKVX
K562 = tested on: K562
LOX IMVI = tested on: LOX IMVI
MCF7 = tested on: MCF7
MDA-MB-231 = tested on: MDA-MB-231
MOLT-4 = tested on: MOLT-4
NCI/ADR-RES = tested on: NCI/ADR-RES
OVCAR-4 = tested on: OVCAR-4
OVCAR-8 = tested on: OVCAR-8
RXF 393 = tested on: RXF 393
SK-MEL-28 = tested on: SK-MEL-28
SK-OV-3 = tested on: SK-OV-3
SN12C = tested on: SN12C
SNB-75 = tested on: SNB-75
SR = tested on: SR
T47D = tested on: T47D
U-251 = tested on: U-251
UACC-257 = tested on: UACC-257

SMILES	GI50 (ACHN)	GI50 (DU-145)	GI50 (EKVX)	GI50 (K562)	GI50 (LOX IMVI)	GI50 (MCF7)	GI50 (MDA-MB-231)	GI50 (MOLT-4)	GI50 (NCI/ADR-RES)	GI50 (OVCAR-4)	GI50 (OVCAR-8)	GI50 (RXF 393)	GI50 (SK-MEL-28)	GI50 (SK-OV-3)	GI50 (SN12C)	GI50 (SNB-75)	GI50 (SR)	GI50 (T47D)	GI50 (U-251)	GI50 (UACC-257)
CC(C)C1C(=O)N(c2c(F)c(F)c(F)c(F)c2F)C(=S)N1CC[S+]([O-])c1ccccc1 (stereo not given)	18.6 µM (inactive)	20.7 µM (inactive)	16.4 µM (inactive)	10.8 µM (inactive)	14.4 µM (inactive)	16.6 µM (inactive)	16 µM (inactive)	21.2 µM (inactive)	20 µM (inactive)	16.3 µM (inactive)	17.1 µM (inactive)	17.8 µM (inactive)	16.9 µM (inactive)	19.6 µM (inactive)	15.8 µM (inactive)	26.4 µM (inactive)	6.22 µM (inactive)	6.78 µM (inactive)	14.8 µM (inactive)	20.2 µM (inactive)
O=C(/C=C/c1ccc(-c2ccccc2)cc1)NCc1ccc(C(=O)NCCc2c[nH]c3ccccc23)cc1	35.8 µM (inactive)	> 100 µM (inactive)	34.2 µM (inactive)	21.5 µM (inactive)	48.9 µM (inactive)	89.9 µM (inactive)	14.6 µM (inactive)	16.6 µM (inactive)	60 µM (inactive)	14.8 µM (inactive)	13.6 µM (inactive)	19.8 µM (inactive)	39.7 µM (inactive)	14.5 µM (inactive)	5.08 µM (inactive)	11.2 µM (inactive)	21 µM (inactive)	22 µM (inactive)	11.9 µM (inactive)	67.3 µM (inactive)
CP(C)(=S)P(C)(C)=S	> 100 µM (inactive)	> 100 µM (inactive)	> 100 µM (inactive)	> 100 µM (inactive)	4.37 µM (inactive)	> 100 µM (inactive)	> 100 µM (inactive)	> 100 µM (inactive)	> 100 µM (inactive)	> 100 µM (inactive)	> 100 µM (inactive)	> 100 µM (inactive)	> 100 µM (inactive)	> 100 µM (inactive)	> 100 µM (inactive)	> 100 µM (inactive)	> 100 µM (inactive)	> 100 µM (inactive)	> 100 µM (inactive)	> 100 µM (inactive)
CC(=O)C1(Cc2cccc3ccccc23)S(=O)(=O)OCCOS1(=O)=O	18.7 µM (inactive)	18.4 µM (inactive)	18.5 µM (inactive)	28.4 µM (inactive)	12.1 µM (inactive)	20.8 µM (inactive)	15.8 µM (inactive)	29.1 µM (inactive)	21.8 µM (inactive)	21.7 µM (inactive)	19.5 µM (inactive)	12.7 µM (inactive)	19.3 µM (inactive)	2.72 µM (inactive)	11.9 µM (inactive)	35.4 µM (inactive)	18.3 µM (inactive)	18.5 µM (inactive)	16.7 µM (inactive)	4.11 µM (inactive)
Nc1nc(Cl)c(N)c(NC23CC4CC(CC(C4)C2)C3)n1	1.78 µM (inactive)	2.22 µM (inactive)	2.18 µM (inactive)	2.08 µM (inactive)	3.87 µM (inactive)	1.68 µM (inactive)	1.79 µM (inactive)	2.39 µM (inactive)	2.43 µM (inactive)	1.85 µM (inactive)	2.55 µM (inactive)	1.61 µM (inactive)	1.84 µM (inactive)	4.32 µM (inactive)	1.82 µM (inactive)	2.1 µM (inactive)	2.56 µM (inactive)	1.34 µM (inactive)	1.66 µM (inactive)	2.36 µM (inactive)
C/C(=N\Nc1nc2ccccc2[nH]1)c1ccc2ccccc2n1	3.15 µM (inactive)	1.91 µM (inactive)	0.678 µM (active)	2.39 µM (inactive)	2.11 µM (inactive)	2.17 µM (inactive)	1.87 µM (inactive)	0.755 µM (active)	1.85 µM (inactive)	1.85 µM (inactive)	3.33 µM (inactive)	2.73 µM (inactive)	3.79 µM (inactive)	8.87 µM (inactive)	1.52 µM (inactive)	2.19 µM (inactive)	0.08 µM (active)	0.343 µM (active)	1.81 µM (inactive)	3.55 µM (inactive)
O=c1[nH]c(=O)n([C@H]2CCCO2)cc1F	977 µM (inactive)	748 µM (inactive)	393 µM (inactive)	968 µM (inactive)	685 µM (inactive)	467 µM (inactive)	> 2720 µM (inactive)	830 µM (inactive)	923 µM (inactive)	2610 µM (inactive)	655 µM (inactive)	769 µM (inactive)	830 µM (inactive)	681 µM (inactive)	838 µM (inactive)	560 µM (inactive)	337 µM (inactive)	> 465 µM (inactive)	957 µM (inactive)	951 µM (inactive)
